The assay deals with T1, Human farnesyl pyrophosphate synthase (FPPS, Swissprot ID: P14324) (Homo sapiens, UniProt P14324).
T1 construct: made in house
T1 sequence (P14324 67-419 limits assumed): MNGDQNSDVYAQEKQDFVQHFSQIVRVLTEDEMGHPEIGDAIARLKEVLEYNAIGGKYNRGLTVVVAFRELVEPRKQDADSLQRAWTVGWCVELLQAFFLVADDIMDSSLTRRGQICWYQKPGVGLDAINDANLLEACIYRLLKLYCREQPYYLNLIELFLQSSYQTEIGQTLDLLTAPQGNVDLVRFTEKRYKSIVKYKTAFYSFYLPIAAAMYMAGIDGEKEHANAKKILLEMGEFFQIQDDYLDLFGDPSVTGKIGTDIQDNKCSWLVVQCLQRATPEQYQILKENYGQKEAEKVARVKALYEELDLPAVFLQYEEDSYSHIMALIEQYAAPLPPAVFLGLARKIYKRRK
Description: FPPS assay (label-free LC/MS/MS quantification of farnesyl pyrophosphate). Format: biochemical. To be noted: cell-free in vitro FPPS assay; 5 min pre-incubation with enzyme, GPP/IPP 5 μM each, 30 min reaction. As for the experimental part: For example, in a cell-free in vitro assay the superiority of compounds of the formula I over compounds already known can be shown. Briefly, the reaction proceeds in the presence of enzyme and an inhibitor of the formula I, and the reaction product (farneysyl pyrophosphate) is quantified by LC/MS/MS.
In detail, the inhibitor and enzyme are pre-incubated before adding the substrates
The assay is a label-free assay for farnesyl pyrophosphate synthase (FPPS) based on LC/MS/MS. This method quantifies in-vitro untagged farnesyl pyrophosphate (FPP) and is suitable for high throughput screening (HTS) to find inhibitors of FPPS and for the determinations of IC50 values of candidate compounds. The analysis time is 2.0 minutes with a total cycle time of 2.5 minutes. The analysis can be formatted for 384-well plates resulting in an analysis time of 16 hours per plate.
Pentanol, methanol, and isopropyl alcohol are HPLC grade and obtained from Fisher Scientific, DMIPA is from Sigma-Aldrich. Water is from an in-house Milli-Q system. The assay buffer (20 mM HEPES, 5 mM MgCl2 and 1 mM CaCl2) is prepared by dilution from […] stock solutions obtained from Sigma-Aldrich. Standards of geranyl pyrophosphate (GPP), […], and farnesyl S-thiolopyrophosphate (FSPP) are from Echelon Biosciences (Salt Lake City, Utah). Human farnesyl pyrophosphate synthase (FPPS, Swissprot ID: P14324) (13.8 mg/mL) is prepared as described by Rondeau at al (ChemMedChem 2006, 1, 267-273.
LC/MS/MS analyses are performed on a Micromass Quattro Micro tandem quadrupole mass analyser (Waters Corp, Milford, Mass., USA) interfaced to an Agilent 1100 binary LC pump Agilent Technologies, Inc., Santa Clara, Calif., USA). Injection is performed with a CTC Analytics autosampler (Leap Technologies Inc., Carrboro, N.C., USA) using an injection loop size of 2.5 μL. Chromatography is performed on a Waters 2.1×20 mm Xterra MS C18 5 μm guard column (P/N186000652) (Waters Corp., Milford, Mass., USA) contained in a guard column holder (P/N 186000262) using 0.1% DMIPA/methanol as solvent A and 0.1% DMIPA/water as solvent B (DMIPA is dimethylisopropylamine). The gradient is 5% A from 0.00 to 0.30 min, 50% A at 0.31 min., 80% A at 1.00 min., and 5% A from 1.01 to 2.00 min. The flow rate is 0.3 mL/min, and the flow is diverted to waste from 0.00 to 0.50 min and again from 1.20 to 2.00 min.
The Multiple Reaction Monitoring (MRM) transitions monitored are 381->79—for FPP and 397->159—for FSPP at a collision energy of 22 eV and a collision cell pressure of 2.1×10-3 mbar of Ar. The dwell time per transition is 400 msec with a span of 0.4 Da. The inter-channel delay and interscan delay are both 0.02 sec. Other mass spectrometric operating parameters are: capillary, 2.0 kV; cone, 35 V; extractor, 2.0 V, source temp., 100 ° C.; desolvation gas temp., 250° C.; desolvation gas flow, 650 L/hr; cone gas flow, 25 L/hr; multiplier, 650 V.
The total cycle time per sample is 2.5 minutes. Since the analysis is formatted for 384-well plates, a plate is analyzed in 16 hours. The chromatograms are processed using Quanlynx software, which divides the area of individual FPP peaks by the area of the FSPP peaks (internal standard). The resulting values are reported as the relative response for the corresponding sample well.
Into each well of a 384-well plate, 5 μL of compound in 20% DMSO/water is placed. […]

The structures appear in SMILES notation.

Results on five compounds are retold here after patent publication US20110257131A1, “PHENYLALKYL-IMIDAZOLE-BISPHOSPHONATE COMPOUNDS” (NOVARTIS AG, priority 2008, published 2011).

The compound `O=P(O)(O)C(O)(Cn1cncc1CCCc1ccccc1)P(=O)(O)O` [Example 1, {1-Hydroxy-2-[5-(3-phenyl-propyl)-imidazol-1-yl]-1-phosphono-ethyl}-phosphonic acid] registered an IC50 of 1.9 nM. This counts as single-digit nanomolar.

`O=P(O)(O)C(O)(Cn1cnc(Cc2ccccc2)c1)P(=O)(O)O` [Example 2, [2-(4-Benzyl-imidazol-1-yl)-1-hydroxy-1-phosphono-ethyl]-phosphonic acid] returned a half-inhibitory concentration (IC50) of 1.4 nM. Compound `O=P(O)(O)C(O)(Cn1cnc(CCc2ccccc2)c1)P(=O)(O)O` [Example 3, [1-Hydroxy-2-(4-phenethyl-imidazol-1-yl)-1-phosphono-ethyl]-phosphonic acid] gave an IC50 of 1.9 nM.

As for `O=P(O)(O)C(O)(Cn1cncc1CCc1ccccc1)P(=O)(O)O` [Example 4, [1-Hydroxy-2-(5-phenethyl-imidazol-1-yl)-1-phosphono-ethyl]-phosphonic acid], the IC50 amounted to 6.7 nM. The same measure for `Cc1ccc(CCCc2cncn2CC(O)(P(=O)(O)O)P(=O)(O)O)cc1` [Example 5, {1-Hydroxy-1-phosphono-2-[5-(3-p-tolyl-propyl)-imidazol-1-yl]-ethyl}-phosphonic acid]: 3.5 nM.
